Data: PubChem BioAssay AID248 (DTP/NCI, 2004)
Several values for one entry are separate records, joined by “and”; a condition that tells them apart may be missing. Identical values can stand only once. Toxic doses and inconclusive results are not listed. No stated cut-off is given here; in the data, active means T/C of 150% or more; inactive means T/C below 125%.

Tested on: L1210 leukemia ip in BDF1 mice, survival T/C
Test: NCI In Vivo Anticancer Drug Screen. Data for tumor model L1210 Leukemia (intraperitoneal) in B6D2F1 (BDF1) mice
Conditions: endpoint: mean survival time, higher = longer survival
In short: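 Transplantable tumor model; survival measured in treated vs vehicle control mice. Value = treated/control.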

[1] = dose: 100.0 mg/kg/injection, schedule: Q01DX009 (ip), vehicle: Klucel (hydroxypropylcellulose) (HPC)
[2] = dose: 200.0 mg/kg/injection, schedule: Q01DX009 (ip), vehicle: Klucel (hydroxypropylcellulose) (HPC)
[3] = dose: 100.0 mg/kg/injection, schedule: Q01DX001 (ip), vehicle: carboxymethylcellulose (CMC)
[4] = dose: 200.0 mg/kg/injection, schedule: Q01DX001 (ip), vehicle: carboxymethylcellulose (CMC)
[5] = dose: 400.0 mg/kg/injection, schedule: Q01DX001 (ip), vehicle: carboxymethylcellulose (CMC)
[6] = dose: 100.0 mg/kg/injection, schedule: Q04DX002 (ip), vehicle: Klucel (hydroxypropylcellulose) (HPC)
[7] = dose: 200.0 mg/kg/injection, schedule: Q04DX002 (ip), vehicle: Klucel (hydroxypropylcellulose) (HPC)
[8] = dose: 400.0 mg/kg/injection, schedule: Q04DX002 (ip), vehicle: Klucel (hydroxypropylcellulose) (HPC)
[9] = dose: 100.0 mg/kg/injection, schedule: Q01DX009 (ip), vehicle: saline with Tween-80
[10] = dose: 200.0 mg/kg/injection, schedule: Q01DX009 (ip), vehicle: saline with Tween-80
[11] = dose: 100.0 mg/kg/injection, schedule: Q04DX003 (ip), vehicle: saline
[12] = dose: 200.0 mg/kg/injection, schedule: Q04DX003 (ip), vehicle: saline
[13] = dose: 100.0 mg/kg/injection, schedule: Q04DX003 (ip), vehicle: saline with Tween-80
[14] = dose: 200.0 mg/kg/injection, schedule: Q04DX003 (ip), vehicle: saline with Tween-80
[15] = dose: 400.0 mg/kg/injection, schedule: Q04DX003 (ip), vehicle: saline with Tween-80
[16] = dose: 100.0 mg/kg/injection, schedule: Q01DX001 (ip), vehicle: saline
[17] = dose: 200.0 mg/kg/injection, schedule: Q01DX001 (ip), vehicle: saline
[18] = dose: 400.0 mg/kg/injection, schedule: Q01DX001 (ip), vehicle: saline
[19] = dose: 12.5 mg/kg/injection, schedule: Q01DX009 (ip), vehicle: saline with Tween-80
[20] = dose: 25.0 mg/kg/injection, schedule: Q01DX009 (ip), vehicle: saline with Tween-80
[21] = dose: 400.0 mg/kg/injection, schedule: Q04DX003 (ip), vehicle: saline
[22] = dose: 50.0 mg/kg/injection, schedule: Q01DX009 (ip), vehicle: saline with Tween-80

Measured: T/C

CCOC(=O)C(C(=O)OCC)C1c2ccccc2C(=NO)c2ccccc21 (configuration not stated)
inactive: dose: 50.0 mg/kg/injection, schedule: Q01DX009 (ip), vehicle: Klucel (hydroxypropylcellulose) (HPC) 96 % of control | [1] 98 % of control | dose: 100.0 mg/kg/injection, schedule: Q04DX003 (ip), vehicle: Klucel (hydroxypropylcellulose) (HPC) 88 % of control | [2] 94 % of control | dose: 200.0 mg/kg/injection, schedule: Q04DX003 (ip), vehicle: Klucel (hydroxypropylcellulose) (HPC) 92 % of control

CCOC(=O)NP(=O)(NNc1ccccc1)NNc1ccccc1
inactive: dose: 50.0 mg/kg/injection, schedule: Q01DX001 (ip), vehicle: carboxymethylcellulose (CMC) 104 % of control | [3] 89 % of control | [4] 95 % of control | [5] 89 % of control

Cc1ncc(CO)c(C2NOCc3ccc(Cl)cc32)c1O (configuration not stated)
inactive: dose: 100.0 mg/kg/injection, schedule: Q04DX003 (ip), vehicle: acetone 104 % of control

O=C(CCCCCCCCC(=O)NCCBr)NCCBr
inactive: dose: 100.0 mg/kg/injection, schedule: Q01DX005 (ip), vehicle: Klucel (hydroxypropylcellulose) (HPC) 98 % of control | [6] 104 % of control | dose: 200.0 mg/kg/injection, schedule: Q01DX005 (ip), vehicle: Klucel (hydroxypropylcellulose) (HPC) 94 % of control | [7] 101 % of control | dose: 400.0 mg/kg/injection, schedule: Q01DX005 (ip), vehicle: Klucel (hydroxypropylcellulose) (HPC) 102 % of control | [8] 101 % of control

CCOC(=O)c1ccc(NC(=O)OC2CCCC2)cc1
inactive: [1] 100 % of control | [2] 101 % of control | dose: 400.0 mg/kg/injection, schedule: Q01DX009 (ip), vehicle: Klucel (hydroxypropylcellulose) (HPC) 92 % of control

CCCCCOC(=O)C1OC1(C)c1ccccc1 (configuration not stated)
inactive: [9] 98 % of control | [10] 91 % of control | dose: 400.0 mg/kg/injection, schedule: Q01DX009 (ip), vehicle: saline with Tween-80 88 % of control

Nc1cccc(CC(=O)Nc2ccccc2)c1
inactive: dose: 100.0 mg/kg/injection, schedule: Q01DX009 (ip), vehicle: alcohol 93 % of control | dose: 100.0 mg/kg/injection, schedule: Q04DX003 (ip), vehicle: alcohol 97 % of control | dose: 200.0 mg/kg/injection, schedule: Q01DX009 (ip), vehicle: alcohol 105 % of control | dose: 200.0 mg/kg/injection, schedule: Q04DX003 (ip), vehicle: alcohol 100 % of control | dose: 400.0 mg/kg/injection, schedule: Q01DX009 (ip), vehicle: alcohol 103 % of control | dose: 400.0 mg/kg/injection, schedule: Q04DX003 (ip), vehicle: alcohol 100 % of control

O=C(CCC[n+]1ccccc1)CC(O)(C(F)(F)F)C(F)(F)F
inactive: dose: 50.0 mg/kg/injection, schedule: Q01DX009 (ip), vehicle: saline 105 % of control | dose: 100.0 mg/kg/injection, schedule: Q01DX009 (ip), vehicle: saline 103 % of control | [11] 103 % of control | dose: 200.0 mg/kg/injection, schedule: Q01DX009 (ip), vehicle: saline 100 % of control | [12] 106 % of control

CCCC=C(CCCC)CCCC
inactive: dose: 100.0 mg/kg/injection, schedule: Q04DX002 (ip), vehicle: saline with Tween-80 87 % of control | dose: 200.0 mg/kg/injection, schedule: Q04DX002 (ip), vehicle: saline with Tween-80 94 % of control

O=C(Nc1cccc(C2=NCCN2)c1)c1cc(Cl)cc(C(=O)Nc2cccc(C3=NCCN3)c2)c1
inactive: dose: 7.0 mg/kg/injection, schedule: Q01DX Z (ip), vehicle: methylcellulose (MC) 92 % of control | dose: 11.0 mg/kg/injection, schedule: Q01DX Z (ip), vehicle: methylcellulose (MC) 100 % of control | dose: 16.0 mg/kg/injection, schedule: Q01DX Z (ip), vehicle: methylcellulose (MC) 87 % of control | dose: 25.0 mg/kg/injection, schedule: Q01DX Z (ip), vehicle: methylcellulose (MC) 97 % of control

CC(C)c1ccc(/C=N\[N+](C)(C)C)cc1
inactive: [11] 101 % of control | [12] 95 % of control

CCc1ccc(C(=O)CCCCl)cc1
inactive: [13] 94 % of control | [14] 100 % of control | [15] 86 % of control

c1ccc(C2CCN3c4ccc5ccccc5c4NCC23)cc1 (configuration not stated)
inactive: [6] 107 % of control | [7] 93 % of control | [8] 93 % of control

CC(C)(C)C(=O)CC(=O)C(C)(C)C.CC(C)(C)C(=O)CC(=O)C(C)(C)C.CC(C)(C)C(=O)CC(=O)C(C)(C)C.[Co]
inactive: dose: 100.0 mg/kg/injection, schedule: Q04DX002 (ip), vehicle: gum acacia 107 % of control | dose: 200.0 mg/kg/injection, schedule: Q04DX002 (ip), vehicle: gum acacia 90 % of control | dose: 400.0 mg/kg/injection, schedule: Q04DX002 (ip), vehicle: gum acacia 93 % of control

CCOC(=O)c1ncn(-c2ccccc2)c1C(=O)OCC
inactive: dose: 100.0 mg/kg/injection, schedule: Q04DX002 (ip), vehicle: carboxymethylcellulose (CMC) 100 % of control | dose: 100.0 mg/kg/injection, schedule: Q04DX003 (ip), vehicle: carboxymethylcellulose (CMC) 96 % of control and 100 % of control | dose: 200.0 mg/kg/injection, schedule: Q04DX002 (ip), vehicle: carboxymethylcellulose (CMC) 97 % of control and 104 % of control | dose: 200.0 mg/kg/injection, schedule: Q04DX003 (ip), vehicle: carboxymethylcellulose (CMC) 96 % of control and 101 % of control | dose: 400.0 mg/kg/injection, schedule: Q04DX002 (ip), vehicle: carboxymethylcellulose (CMC) 94 % of control and 86 % of control | dose: 400.0 mg/kg/injection, schedule: Q04DX003 (ip), vehicle: carboxymethylcellulose (CMC) 94 % of control and 92 % of control

CC1C[N+](C)(C)N=C1[O-] (configuration not stated)
inactive: [16] 104 % of control | [17] 98 % of control | [18] 95 % of control

Nc1ccc2c(c1)/C(=N/O)c1cc(Br)ccc1-2
inactive: [3] 110 % of control | [4] 102 % of control | [5] 100 % of control

O=C(CC(O)(C(F)(F)F)C(F)(F)F)c1ccc(F)cc1
inactive: [13] 94 % of control | [14] 92 % of control | [15] 103 % of control

COC(=O)C1=C(C(=O)OC)C2(C)C=CC1O2 (configuration not stated)
inactive: dose: 3.12 mg/kg/injection, schedule: Q01DX009 (ip), vehicle: saline with Tween-80 98 % of control | dose: 6.25 mg/kg/injection, schedule: Q01DX009 (ip), vehicle: saline with Tween-80 93 % of control | [19] 98 % of control and 105 % of control | [20] 106 % of control

C/C(CCO)=N\NC(N)=S
inactive: dose: 50.0 mg/kg/injection, schedule: Q01DX001 (ip), vehicle: saline 98 % of control | [16] 98 % of control | [11] 100 % of control | [17] 92 % of control | [12] 90 % of control | [18] 101 % of control | [21] 88 % of control

COC(=O)c1c(OC)cc(OC)cc1OC
inactive: dose: 100.0 mg/kg/injection, schedule: Q01DX009 (ip), vehicle: other 96 % of control | [11] 100 % of control | dose: 200.0 mg/kg/injection, schedule: Q01DX009 (ip), vehicle: other 96 % of control | [12] 97 % of control | dose: 400.0 mg/kg/injection, schedule: Q01DX009 (ip), vehicle: other 94 % of control | [21] 95 % of control

CC(C)Oc1ccc2ccccc2c1
inactive: dose: 12.5 mg/kg/injection, schedule: Q04DX003 (ip), vehicle: acetone 94 % of control | dose: 25.0 mg/kg/injection, schedule: Q04DX003 (ip), vehicle: acetone 93 % of control | dose: 50.0 mg/kg/injection, schedule: Q04DX003 (ip), vehicle: acetone 93 % of control

COc1cc2c(cc1O)CCCC(C)(C)C2=O
inactive: [22] 104 % of control | [9] 93 % of control | [10] 90 % of control

O=S(=O)(O)c1ccc(-c2c3nc(c(-c4ccc(S(=O)(=O)O)cc4)c4ccc([nH]4)c(-c4ccc(S(=O)(=O)O)cc4)c4nc(c(-c5ccc(S(=O)(=O)O)cc5)c5ccc2[nH]5)C=C4)C=C3)cc1
inactive: [19] 90 % of control | [20] 90 % of control | [22] 98 % of control | [9] 88 % of control
